One substance from patent publication US11352604B2, “Method of making cardiomyocytes from human pluripotent cells” (Wisconsin Alumni Research Foundation, priority 2016, dated 2022) can be followed below.

Assay [1] relates to hPSC-CMs. Kind of assay: Transmission electron microscopy of sarcomeres. Format: cell-based, human. Particulars: day 30 hPSC-CMs from pI:C-treated progenitors. An excerpt:
Differentiated H9-cTnT-GFP line hPSC-CMs at day 30 were washed twice with sodium phosphate buffer and fixed and maintained in sodium phosphate buffer with 4% paraformaldehyde (PFA) until pelleting and processing for TEM as previously described (Raval et al., 2015).

For assay [2], the system named is hPSC-CMs. Nature of the assay: Optical action potential measurement (RH237). Type of assay: cell-based, human. As to the method:
After hPSC-CM dissociation, day 30 to 60 lactate-purified hPSC-CMs from the 19-9-11 cell line were plated as 80 μL drops on areas of cover glass previously coated in drops of Synthemax® working solution of 80 μL (Corning) in the K20/2 dissociation and replating technique described above. After at least two days in K2 medium, the fast-equilibrating voltage-sensitive dye RH237 at 1 μM was added and live cells imaged in the cover glass in a Leica confocal microscope. Video files of individual cells were taken and filtered with the 50th FIR filter at a cutoff frequency of 128 Hz. The resulting action potentials were analyzed for rise time and voltage velocity in MATLAB. Individual cells were considered as replicates for statistical purposes and came from 4 cell preparations.

As for polyinosinic-polycytidylic acid [pI:C], the sarcomere ultrastructure entry in assay [1] is “longer, more regular and compact sarcomeres that contained I-bands”. In assay [2] (day 30 hPSC-CMs from pI:C-treated vs untreated progenitors), the “optical upstroke velocity (rise time)” value is reported as “significantly faster”. In addition, in assay [2] (spontaneous action potentials), the APD80 result is recorded as “decrease”.
